PubChem BioAssay AID2260 (Sanford-Burnham Center for Chemical Genomics, 2010)
Activity calls are given as the source filed them. No rule for the calls is given here.

Each compound was assayed on MCF-7/NOD2 cells, MDP-induced IL-8 secretion (assay: inhibition of NOD2-driven IL-8 release, SAR follow-up, MCF-7/NOD2 cells, MDP stimulus (AID 2260)).

IC50, inactive:
Nc1nc2ccccc2n1S(=O)(=O)c1ccc([N+](=O)[O-])cc1 > 5 µM
Cc1ccc(S(=O)(=O)n2c(N)nc3ccccc32)cc1 > 25 µM
COc1ccc(S(=O)(=O)n2c(N)nc3ccccc32)cc1 > 5 µM
Cc1ccc(S(=O)(=O)n2c(N)nc3cc(C)c(C)cc32)cc1 > 5 µM
Nc1nc2ccccc2n1S(=O)(=O)c1ccccc1 > 5 µM
O=C(O)c1c(NC(=O)N2CCOCC2)sc2c1CCCC2 > 25 µM
